# From patent publication US20240156757A1, “CXCL8 INHIBITOR AND PHARMACEUTICAL COMPOSITION THEREOF FOR USE IN THE TREATMENT OF SEIZURES” (DOMPE' FARMACEUTICI SPA, priority 2021, published 2024)
# What was measured:
# [1] = tested on: murine model of acquired epilepsy triggered by de novo status epilepticus; test: Effect of reparixin on onset and development of epilepsy (intra-amygdala kainic acid status epilepticus, EEG recording); format: in vivo, C57BL6/N male mice
# Method: A murine model of acquired epilepsy triggered by de novo status epilepticus was used in the experiments (lori et al, Neurobiol Dis 2017, 99 12-23).
# In details, eight week-old C57BL6/N male mice (˜25 g; Charles River, calco, Italy) were used. Mice were maintained in SPF facilities and housed at a constant room temperature (23° c) and relative humidity (60±5%) with free access to food and water and a fixed 12 h light/dark cycle. All experimental procedures were conducted in conformity with institutional guidelines that are in compliance with national (D.L. n.26, G.U. Mar. 4, 2014) and international laws and policies (EEC council directive 86/609, OJ L 358, 1, Dec. 12, 1987, guide for the care and use of laboratory animals, U.S. national research council, 1996), and were reviewed and approved by the intramural ethical committee.
# Mice were surgically implanted under general gas anaesthesia (1-3% isoflurane in O2) and stereotaxic guidance. A 23-gauge guide cannula was unilaterally positioned on top of the dura mater for the intra-amygdala injection of kainic acid (KA) (from bregma, mm: nose bar 0; anteroposterior, −0.9; lateral, −3.1) in accordance with lori et al. (2017).
# For seizure recording, a nichrome-insulated bipolar depth electrode (60 μm OD) was implanted in the dorsal hippocampus (from bregma, mm: nose bar 0; anteroposterior—1.8, lateral 1.4 and 1.8 below dura mater) contralateral to the injected amygdala and a cortical electrode was placed onto the somatosensory cortex in the ipsilateral hemisphere. Finally, two screw electrodes were positioned over the nasal sinus and the cerebellum, and used as ground and reference electrodes, respectively. Electrodes were connected to a multipin socket and secured to the skull by acrylic dental cement.
# Minipumps (Alzet pump 1007D, 100 μ/minipump or Alzet pump 2002, 200 μ/minipump; Charles River, Calco, Italy) filled with reparixin dissolved in a vehicle consisting in sterile saline (NaCl 0.9%) solution (vehicle) (reparixin group) or vehicle (sham control group and vehicle group) were implanted subcutaneously in the back of the mice. Briefly, a small incision was made in the skin between the scapulae and a pocket was formed by spreading apart the connective tissues. After minipump positioning, the skin was carefully sutured to avoid any discomfort to the animal.
# One week after surgery, mice were connected to the EEG set up (TWIN EEG recording system connected with a comet AS-40 32/8 amplifier:sampling rate 400 hz, high-pass filter 0.3 hz, low-pass filter 70 hz, sensitivity 2000 my/cm; Grass-telefactor, West Warwick, USA) in order to record an EEG baseline before the induction of status epilepticus (SE). […]
# Reparixin, at the dose of 7.5 mg/h/kg (reparixin group), or vehicle (sham and vehicle group) were administered by continuous infusion using osmotic minipumps as described in example 1b).
# After 24 hours from infusion, status epilepticus was induced in the vehicle group and reparixin group by amygdal injection of kaininc acid.
# In details, kainic acid (KA, 0.3 μg in 0.2 μl; Sigma-Aldrich, S. Louis, USA) was dissolved in […] phosphate-buffered saline (PBS, pH 7.4) and injected into the right basolateral amygdala in freely moving mice using a needle protruding 4.1 mm below the implanted cannula in order to evoke SE. SE was defined by the appearance of continuous spike activity with a frequency>1 Hz intermixed with high amplitude and frequency discharges lasting for at least 5 s, with a frequency of >8 Hz. […]
# acetylated alpha-tubulin = test: Acetylated alpha-tubulin immunostaining in hippocampus after SE; format: in vivo, C57BL6/N male mice; conditions: as assessed 48 h and 72 h after SE; 7.5 mg/h/kg minipump; reparixin n=7, vehicle n=4
# Method: (§1) A cohort of animals was prepared in accordance to Example 1 to study the effects of reparixin on the acetylated alpha-tubulin, a pharmacodynamic marker of drug's neuroprotective effect, and on degenerating neurons, as identified by Fluoro-Jade staining.
# (§2) vehicle group (n=6) and reparixin group (n=7). Sham mice (implanted with electrodes but not exposed to SE) were used as controls (n=6).
# (§3) The animals of the different groups were treated as described in Example 2.
# […] Brains were post-fixed for 90 min in 4% PFA in PBS at 4° C., then transferred to 20% sucrose in PBS overnight at 4° C. and then frozen in n-pentane for 3 min at −43° C. and stored at −80° C. until assay. Serial coronal sections (40 μm) were cut on a cryostat throughout the extension of the hippocampus (from bregma −1.22 to −2.54 mm).
# (§4) Sections were processed to measure both degenerating neurons with Fluoro-Jade and acetylated alpha-tubulin (marker of microtubule stability) as described below. Three slices for each animal's brain in each experimental group/marker were matched for anteroposterior level and processed.
# Slices were blocked for 30 min at 4° C. in blocking buffer (0.1% Triton-X100, 3% BSA in PBS; Invitrogen) then incubated with primary antibody against acetylated alpha-tubuline 1:2000 (#24610 Abcam) overnight at 4 C. […]
# [2] = tested on: Fluoro-Jade-positive degenerating neurons; test: Fluoro-Jade staining of degenerating neurons in hippocampus after SE; format: in vivo, C57BL6/N male mice; conditions: 72 h post-SE
# Method: as §1, §2, §3
# All mice were transcardially perfused 72 h post-SE with ice-cold phosphate buffered saline (PBS, pH 7.4), followed by 4% paraformaldehyde (PFA) in PBS. Brains were post-fixed for 90 min in 4% PFA in PBS at 4° C., then transferred to 20% sucrose in PBS overnight at 4° C. and then frozen in n-pentane for 3 min at −43° C. and stored at −80° C. until assay. Serial coronal sections (40 μm) were cut on a cryostat throughout the extension of the hippocampus (from bregma −1.22 to −2.54 mm).
# as §4
# Labeling was carried out as previously described (Ravizza et al., 2008). Briefly, sections were dried in ethanol (100%, 75% and 50%) and rehydrated in distilled water. […]
# [3] = tested on: chronic epileptic mice with established spontaneous seizures; test: Effect of reparixin on established seizures in chronic epileptic mice; format: in vivo
# Method: The objective of this experiment was to assess whether reparixin affects seizure frequency or duration in chronic epileptic mice with established spontaneous seizures. Status epilepticus was induced in 18 mice prepared as described in Example 1a) by amygdala injection of kainic acid and EEG was recorded for 14 days to determine disease onset as described in Example 2. Then, mice were disconnected from EEG and returned to their home cages until day 45 at which time they were again EEG recorded for 14 days to determine their individual baseline of spontaneous seizures. At the end of this period, mice were temporarly disconnected for minipumps implantation. Minipumps (ALZET model 2002; 0.5 μl/h) were filled with Reparixin (7.5/mg/h/kg, n=9) or its vehicle (n=9) according to the manifacturer's instructions and implanted subcutaneously in the back of the mice under general gas anaesthesia (1-3% isoflurane in O2). Upon awakening from anesthesia, mice were returned to their home cages for monitoring the EEG for additional 14 days during treatment. At the end of treatment period (as determined by minipump exhaustion) venous blood was collected from the cheek and plasma was isolated for drug level measurement. Mice were subsequently monitored during a drug wash-out period of 14 days. A group of sham mice (not exposed to SE but handled as experimental mice) were implanted with minipumps filled with vehicle (n=6).
compound,measurement,setting,value
"CC(C)Cc1ccc([C@@H](C)C(=O)NS(C)(=O)=O)cc1 [reparixin, R-(-)-2-(4-isobutylphenyl)propionyl methansulfonamide]",onset time of SE,"[1]; 7.5 mg/h/kg continuous s.c. minipump infusion started 24 h before kainic acid, vs vehicle group, n=24/group",did not modify
same,"onset of spontaneous seizures (epilepsy onset, Kaplan-Meyer curve)","[1]; 7.5 mg/h/kg minipump for 7 days post-SE, p<0.05 Log-rank test vs vehicle",significant delay
same,incidence of acute symptomatic seizures during 48 h post-SE,"[1]; 7.5 mg/h/kg minipump, all animals exposed to SE, p<0.05 by Fisher's test vs vehicle (62% of mice)",20 % of mice
same,number of spontaneous recurrent seizures (SRS) during drug treatment,"[1]; 48 h-7 d post-SE, vs vehicle group, p<0.05 Mann-Whitney test",significant reduction
same,mice that died during epilepsy development,"[1]; reparixin group n=9, vehicle group 3 out of 12 died because of severe seizures",1 out of 9
same,immunohistochemical signal of acetylated alpha-tubulin in the mouse hippocampus,acetylated alpha-tubulin,significantly reduced
same,mice without Fluoro-Jade positive neurons in CA4,"[2]; vehicle 1 out of 5 without neurodegeneration, p=0.29 by Fisher test",4 out of 7
same,mice without Fluoro-Jade positive neurons in CA1 pyramidal cell layer,"[2]; vehicle 5 out of 5 showed neurodegeneration, p<0.05 by Fisher test",5 out of 7
same,average SRS duration,"[3]; 7.5 mg/h/kg s.c. minipump for 14 days, n=9",not modified
same,reduction of the number of spontaneous seizures compared to pre-injection baseline,"[3]; 7.5 mg/h/kg s.c. minipump for 14 days, n=9, p<0.05 one-way ANOVA, Tukey's test",about 50%
same,responders (at least 30% seizure reduction during treatment vs pre-treatment baseline),"[3]; 7.5 mg/h/kg s.c. minipump for 14 days, waterfall plot",7 out of 9
same,number of seizures upon drug discontinuation,[3]; drug wash-out period of 14 days,returned to pre-injection baseline level
